Source: US6951863B2, “Pyridoarylphenly oxazolidinone antibacterials, and related compositions and methods” (Ortho-McNeil Pharmaceutical, Inc., priority 2001, dated 2005)
Values after ≈ are worked out from the molar mass of the structure shown.

What was measured:
E. faecium OC3312 = assay: MIC, microdilution broth method (NCCLS); assay type: cell-based; details: E. faecium OC3312 (vancomycin-resistant enterococcus); 35° C., 16-20 hours; read-out: MIC (μg/mL) in Test Strains E. faecium OC3312
Experimental: (§1) Minimal inhibitory concentration (MIC) has been an indicator of in vitro antibacterial activity widely used in the art. The in vitro antimicrobial activity of the compounds was determined by the microdilution broth method following the test method from the National Committee for Laboratory Standards (NCCLS). This method is described in the NCCLS Document M7-A4, Vol. 17, No. 2, “Methods for Dilution Antimicrobial Susceptibility Test for Bacteria that Grow Aerobically—Fourth Edition”, which is incorporated herein by reference.
(§2) In this method two-fold serial dilutions of drug in cation adjusted Mueller-Hinton broth are added to wells in microdilution trays. The test organisms are prepared by adjusting the turbidity of actively growing broth cultures so that the final concentration of test organism after it is added to the wells is approximately 5×10^4 CFU/well.
(§3) Following inoculation of the microdilution trays, the trays are incubated at 35° C. for 16-20 hours and then read. […] The amount of growth in the wells containing the test compound is compared with the amount of growth in the growth-control wells (no test compound) used in each tray. As set forth in Table 1, some compounds of the present invention were tested against a variety of pathogenic bacteria resulting in a range of activities, from 1 to >128 μg/mL depending on the organism tested. S. aureus OC2878 is a MRSA and E. faecium OC3312 is a vancomycin-resistant enterococcus.

S. aureus OC2878 = assay: MIC, microdilution broth method (NCCLS); assay type: cell-based; details: Staphylococcus aureus; S. aureus OC2878 (MRSA); 35° C., 16-20 hours; read-out: MIC (μg/mL) in Test Strains S. aureus OC2878
Experimental: as §1, §2, §3

S. aureus OC4172 = assay: MIC, microdilution broth method (NCCLS); assay type: cell-based; details: Staphylococcus aureus, 35° C., 16-20 hours, read-out: MIC (μg/mL) in Test Strains S. aureus OC4172
Experimental: as §1, §2, §3

Structure (SMILES) | MIC (E. faecium OC3312) [µg/mL] | MIC (S. aureus OC2878) [µg/mL] | MIC (S. aureus OC4172) [µg/mL] | melting point
O=C1O[C@@H](CO)CN1c1ccc(N2CCc3ccccc3C2)c(F)c1 [Compound 1, 2-oxazolidinone, 3-[4-(3,4-dihydro-2(1H)-isoquinolinyl)-3-fluorophenyl]-5-(hydroxymethyl)-, (5R)-] | > 128 | 32 (≈ 93.5 µM) | 128 (≈ 374 µM) | 
CC(=O)NC[C@H]1CN(c2ccc(N3CCc4ccccc4C3)c(F)c2)C(=O)O1 [Compound 2, acetamide, N-[[(5S)-3-[4-(3,4-dihydro-2(1H)-isoquinolinyl)-3-fluorophenyl]-2-oxo-5-oxazolidinyl]methyl]-] | 8 (≈ 20.9 µM) | 4 (≈ 10.4 µM) | 8 (≈ 20.9 µM) | 131 to 134 °C
CC(=O)NC[C@H]1CN(c2ccc(N3CCc4ccncc4C3)c(F)c2)C(=O)O1 [Compound 3, acetamide, N-[[(5S)-3-[4-(3,4-dihydro-2,7-naphthyridin-2(1H)-yl)-3-fluorophenyl]-2-oxo-5-oxazolidinyl]methyl]-] | 8 (≈ 20.8 µM) | 4 (≈ 10.4 µM) | 8 (≈ 20.8 µM) | 141 to 144 °C (dec.)
CC(=O)NC[C@H]1CN(c2ccc(N3CCc4cnccc4C3=O)c(F)c2)C(=O)O1 [Compound 4, acetamide, N-[[(5S)-3-[4-(3,4-dihydro-1-oxo-2,6-naphthyridin-2(1H)-yl)-3-fluorophenyl]-2-oxo-5-oxazolidinyl]methyl]-] | 32 (≈ 80.3 µM) | 16 (≈ 40.2 µM) | 32 (≈ 80.3 µM) | 
CC(=O)NC[C@H]1CN(c2ccc(N3CCc4ncncc4C3)c(F)c2)C(=O)O1 [Compound 5, acetamide, N-[[(5S)-3-[4-(7,8-dihydropyrido[4,3-d]pyrimidin-6(5H)-yl)-3-fluorophenyl]-2-oxo-5-oxazolidinyl]methyl]-] | 8 (≈ 20.8 µM) | 2 (≈ 5.19 µM) | 4 (≈ 10.4 µM) | 
CC(=O)NC[C@H]1CN(c2ccc(N3CCc4nc(C)ncc4C3)c(F)c2)C(=O)O1 [Compound 6, acetamide, N-[[(5S)-3-[4-(7,8-dihydro-2-methylpyrido[4,3-d]pyrimidin-6(5H)-yl)-3-fluorophenyl]-2-oxo-5-oxazolidinyl]methyl]-] | 8 (≈ 20 µM) | 2 (≈ 5.01 µM) | 4 (≈ 10 µM) | 
CC(=O)NC[C@H]1CN(c2ccc(N3CCc4nc(-c5csc(C)n5)ncc4C3)c(F)c2)C(=O)O1 [Compound 7, acetamide, N-[[(5S)-3-[4-[7,8-dihydro-2-(2-methyl-4-thiazolyl)pyrido[4,3-d]pyrimidin-6(5H)-yl]-3-fluorophenyl]-2-oxo-5-oxazolidinyl]methyl]-] | 8 (≈ 16.6 µM) | 8 (≈ 16.6 µM) | 8 (≈ 16.6 µM) | 
CC(=O)NC[C@H]1CN(c2ccc(N3CCc4nc(-c5ccncc5)ncc4C3)c(F)c2)C(=O)O1 [Compound 8, acetamide, N-[[(5S)-3-[4-[7,8-dihydro-2-(4-pyridinyl)pyrido[4,3-d]pyrimidin-6(5H)-yl]-3-fluorophenyl]-2-oxo-5-oxazolidinyl]methyl]-] | 4 (≈ 8.65 µM) | 2 (≈ 4.32 µM) | 2 (≈ 4.32 µM) | 
CC(=O)NC[C@H]1CN(c2ccc(N3CCc4nc(-c5cnccn5)ncc4C3)c(F)c2)C(=O)O1 [Compound 9, acetamide, N-[[(5S)-3-[4-(7,8-dihydro-2-pyrazinylpyrido[4,3-d]pyrimidin-6(5H)-yl)-3-fluorophenyl]-2-oxo-5-oxazolidinyl]methyl]-] | 8 (≈ 17.3 µM) | 4 (≈ 8.63 µM) | 4 (≈ 8.63 µM) | 
CC(=O)NC[C@H]1CN(c2ccc(N3CCc4[nH]ncc4C3)c(F)c2)C(=O)O1 [Compound 10, acetamide, N-[[(5S)-3-[4-(1,4,6,7-tetrahydro-5H-pyrazolo[4,3-c]pyridin-5-yl)-3-fluorophenyl]-2-oxo-5-oxazolidinyl]methyl]-] | 16 (≈ 42.9 µM) | 8 (≈ 21.4 µM) | 8 (≈ 21.4 µM) | 
CC(=O)NC[C@H]1CN(c2ccc(N3CCc4c(cnn4C)C3)c(F)c2)C(=O)O1 [Compound 11, acetamide, N-[[(5S)-3-[4-(1,4,6,7-tetrahydro-1-methyl-5H-pyrazolo[4,3-c]pyridin-5-yl)-3-fluorophenyl]-2-oxo-5-oxazolidinyl]methyl]-] | 16 (≈ 41.3 µM) | 8 (≈ 20.6 µM) | 16 (≈ 41.3 µM) | 
